This note sets out measurements from patent US20240382474A1, “ENPP1 MODULATORS AND USES THEREOF” (Vir Biotechnology, Inc., priority 2021, published 2024).

Experiment [1] has as its system MC38 tumor xenografts. In words: Treatment of mice bearing MC38 tumor xenografts (Study 2): tumor volume, survival, body weight. It counts as in vivo, C57BL/6 mice. As for the experimental part: (§1) In this study, 6-8 week old female C57BL/6 mice were implanted subcutaneously in the flank with 5×10^5 MC38 cells. Tumors were measured every 2-3 days using a caliper. Body weight was measured every 2-3 days. Dosing initiated on Day (when the average tumor volume reached 50 mm^3 with 15 animals assigned to each treatment group. Animals were dosed orally by gavage with Compound 26 (4 mg/kg PO QD) or Compound 56 (either 1 mg/kg PO QD or 12 mg/kg PO QD).
(§2) A subset of 5 animals from each group were collected on day 10 after the initiation of dosing. Tumors were harvested and lysed via sonication. Supernatants were collected, adjusted for total protein, and assayed using a Luminex cytokine and chemokine panel (Invitrogen) and an IFN-β ELISA. The remaining 10 animals in each group were dosed and monitored through Day 27 or until tumors reached 2 cm in size.
FIG. 2A provides a graph of mean tumor volumes for this set of mice bearing MC38 tumor xenografts. Mice were divided into four groups: (1) control group, who received no treatment (black circles, solid line); (2) mice who received Compound 26 dosed at 4 mg/kg PO QD (grey squares, dashed line); (3) mice who received Compound 56 dosed at 12 mg/kg PO QD (grey triangles, dotted line); and (4) mice who received Compound 56 dosed at 1 mg/kg PO QD (empty circles, dotted dashed line).

Experiment [2] concerns MC38 tumor xenografts. The experiment in a line: Treatment of mice bearing MC38 tumor xenografts (Study 3). It counts as in vivo, C57BL/6 mice. As to conditions: for survival: day to which some mice survived (Kaplan-Meier, FIG. 5B): all untreated mice deceased by day 21. As for the experimental part:
In this study, 6-8 week old female C57BL/6 mice were implanted subcutaneously in the flank with 5×10^5 MC38 cells. Tumors were measured every 2-3 days using a caliper. Body weight was measured every 2-3 days. Dosing initiated when the average tumor volume reached 50 mm^3 with 7 animals assigned to each treatment group. Animals were dosed orally once daily through Day 27 or until tumors reached 2 cm in size.
FIGS. 5A-5B provide data for a fourth set of mice bearing MC38 tumor xenografts. FIG. 5A provides a graph of median tumor volumes for this set of mice. Mice were divided into three groups: (1) control group, who received no treatment (circles); (2) mice who received Compound 26 dosed at 4 mg/kg PO QD (squares); and (3) mice who received Compound 56 dosed at 12 mg/kg PO QD (triangles). […] For example, at day 20, tumor volumes for the untreated mice were between 2000 and 3000 mm^3, while for treated mice had tumor volumes between 1000 and 2000 mm^3.

In experiment [3] the test system is MC38 tumor xenografts. The experiment in a line: Treatment of mice bearing MC38 tumor xenografts (Study 1). It counts as in vivo, C57BL/6 mice. The protocol:
Ten week old female C57BL/6 mice were implanted subcutaneously in the flank with 5×10^5 MC38 cells. Tumors were measured every 2-3 days using a caliper. Body weight was measured every 2-3 days. Dosing initiated on Day (when the average tumor volume reached 50 mm^3. Five animals were assigned to each treatment group. Animals were dosed orally by gavage with Compound 26 for 10 days and were monitored through Day 32 or until tumors reached 2.000 mm^3 in volume.
FIG. 1 provides a graph of mean tumor volumes for this set of mice bearing MC38 tumor xenografts. Mice were divided into three groups: (1) control group, who received no treatment (black circles, solid line); (2) mice who received Compound 26 dosed at 4 mg/kg PO QD (grey triangles, dashed lines); and (3) mice who received Compound 26 dosed at 60 mg/kg PO QD (grey squares, dotted line). In each treatment group, compound 26 was administered once a day for 10 consecutive days, at which time, treatment was ceased.

The target in experiment [4] is T1, human ENPP1 enzymatic domain (Homo sapiens, UniProt P22413).
T1 construct: recombinant protein containing the human ENPP1 enzymatic domain; purchased Viva Biotech
T1 sequence (P22413 191-591 limits assumed): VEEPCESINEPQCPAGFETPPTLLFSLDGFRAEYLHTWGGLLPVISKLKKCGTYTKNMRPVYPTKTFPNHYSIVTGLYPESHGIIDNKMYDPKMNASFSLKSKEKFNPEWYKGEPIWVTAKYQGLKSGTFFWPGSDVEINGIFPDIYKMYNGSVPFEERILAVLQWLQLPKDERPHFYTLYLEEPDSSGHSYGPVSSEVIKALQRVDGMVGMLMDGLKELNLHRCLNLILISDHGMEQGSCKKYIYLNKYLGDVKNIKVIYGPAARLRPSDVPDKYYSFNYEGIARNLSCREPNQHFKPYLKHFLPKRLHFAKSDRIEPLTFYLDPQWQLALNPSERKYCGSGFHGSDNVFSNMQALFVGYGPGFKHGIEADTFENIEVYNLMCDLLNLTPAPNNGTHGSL
In words: ENPP1 Enzymatic Inhibition Assay (2′3′-cGAMP substrate, AMP-Glo luminescence). It counts as biochemical. Conditions: 1 nM ENPP1, 20 uM 2′3′-cGAMP, 30 minutes at 37° C. The protocol:
The inhibition of ENPP1's phosphodiesterase activity were tested in a purified enzymatic assay using 2′3′-cyclic GAMP as a substrate which allowed for the release of cleaved AMP to be monitored using a luminescent assay.
Putative inhibitors were diluted in assay buffer (50 mM Tris pH 8.0, 250 mM NaCl, 0.5 mM CaCl2), 1 uM ZnCl2, 1% DMSO) and pre-incubated for 15 minutes at 37° C. with recombinant protein containing the human ENPP1 enzymatic domain (Viva Biotech). The enzymatic reaction was initiated upon addition of the 2′3′-cGAMP substrate. The final reaction concentrations were 1 nM ENPP1 and 20 uM 2′3′-cGAMP substrate in a 25 uL volume. Inhibitor concentrations ranged from 10 uM to 0.056 nM. The reaction was incubated for 30 minutes at 37° C.
After reacting for 30 minutes, the amount of AMP generated from the cleavage of 2′3′-cGAMP was determined using the Promega AMP-Glo method according to the manufacturer's protocol. First, AMP-Glo reagent 1 was added and incubated with the reaction mix for 1 hour at room temperature. Second, AMP Detection solution was added and the mixture was incubated for an additional hour. The luminescence of the mixture was read on a Perkin Elmer Ensight plate reader.
The maximum and minimum levels of ENPP1 activity were established using no inhibitor and no enzyme controls, respectively. The activity observed using ENPP1 inhibitors was quantified as the percent of activity relative to these controls. IC50 values were calculated using CDD Vault by fitting a sigmoidal variable slope nonlinear regression model to the data.

The subject of a further experiment is MC38 tumors. In words: Intratumoral cytokine levels at day 10 in MC38 tumors (Study 2; Luminex cytokine and chemokine panel, IFN-β ELISA). It counts as in vivo, C57BL/6 mice. Conditions: 12 mg/kg QD. As for the experimental part:
as §1, §2
Intratumoral concentrations for each of these inflammatory cytokines are provided in picogram of cytokine per gram of tumor tissue. FIGS. 4B-F each provide data for each of the following: (1) untreated control group (circles); (2) mice treated with 4 mg/kg QD Compound 26 (triangles); (3) mice treated with 12 mg/kg QD […]; and (4) mice treated with […].
On the technique in general: ELISA stands for enzyme-linked immunosorbent assay.

“Also recorded” adds a separate entry of the source.

By IC50 is commonly meant the concentration that gives 50% inhibition. High values mean lower potency, low ones higher potency. As for `COc1ccc2c(Oc3ccc([S@@](=N)(=O)NC[C@@H](C)O)cc3)ccnc2c1` [Compound 26, (S)-N-((R)-2-hydroxypropyl)-4-((7-methoxyquinolin-4-yl)oxy)benzenesulfonimidamide], the “mean tumor volume compared to the untreated group (FIG. 2A)” value in the experiment with MC38 tumor xenografts [1] (4 mg/kg PO QD) was “smaller”. Moreover, the “survival: day to which some mice survived (Kaplan-Meier, FIG. 3A)” value in the experiment with MC38 tumor xenografts [1] (4 mg/kg PO QD, all untreated mice deceased by day 22) was found to be 24 days. Also, in the experiment with MC38 tumor xenografts [2] (4 mg/kg PO QD), the “median tumor volumes compared to the untreated group (FIG. 5A)” value is “significantly lower” and the “survival: day to which some mice survived (Kaplan-Meier, FIG. 5B)” value amounted to 24 days. The “mean tumor volume compared to the control group (FIG. 1)” value in the experiment with MC38 tumor xenografts [3] (4 mg/kg PO QD for 10 days) is “lower”. The “mean tumor volume compared to the control group (FIG. 1)” value with MC38 tumor xenografts [3] (60 mg/kg PO QD for 10 days) is on record as “lower”. Further, the IC50 in experiment [4] is less than 0.01 µM.
As for `COc1ccc2c(Nc3ccc([S@@](=N)(=O)NC[C@@H](C)O)cc3)ccnc2c1` [Compound 56, (S)-N-((R)-2-hydroxypropyl)-4-((7-methoxyquinolin-4-yl)amino)benzenesulfonimidamide], in the experiment on MC38 tumor xenografts [1] (1 mg/kg PO QD), the “mean tumor volume compared to the untreated group (FIG. 2A)” value is reported as “smaller”. Moreover, in the experiment on MC38 tumor xenografts [1] (1 mg/kg PO QD, all untreated mice deceased by day 22), the “survival: day to which at least one mouse survived (Kaplan-Meier, FIG. 3A)” value was greater than 27 days. In addition, the “mean tumor volume compared to the untreated group (FIG. 2A)” value in the experiment on MC38 tumor xenografts [1] (12 mg/kg PO QD) is “smaller; also recorded: greatest reduction in tumor volume”. Also, in the experiment with MC38 tumor xenografts [1] (12 mg/kg PO QD, all untreated mice deceased by day 22), the “survival: day to which at least one mouse survived (Kaplan-Meier, FIG. 3A)” value is greater than 27 days. In addition, in the experiment on MC38 tumor xenografts [2] (12 mg/kg PO QD), the “median tumor volumes compared to the untreated group (FIG. 5A)” value was “significantly lower” and the “survival: day to which some mice survived (Kaplan-Meier, FIG. 5B)” value was no less than 27 days. Also, in the experiment with MC38 tumors, the “median intratumoral concentration of eotaxin (FIG. 4F)” value was ~15000 pg eotaxin/g of tumor, the “median intratumoral concentration of interferon beta (IFN beta) (FIG. 4B)” value is > 400 pg IFNbeta/g of tumor, the “median intratumoral concentration of interferon γ-induced protein 10 kDa (IP-10) (FIG. 4C)” value was 3000-4000 pg IP-10/g of tumor and the “median intratumoral concentration of macrophage inflammatory protein-1-beta (MIP-1beta) (FIG. 4D)” value is ~9000 pg MIP-1 beta/g of tumor. In addition, in the experiment on MC38 tumors, the “median intratumoral concentration of monocyte-chemotactic protein 3 (MCP-3) (FIG. 4E)” value is 20000-30000 pg MCP-3/g of tumor. For the same compound, the concentration for half-maximal inhibition (IC50) in experiment [4] was less than 0.01 µM.
